{
  "source": "patent US6355426B2",
  "about": "“Methods for the characterization and selection of RNA target motifs that bind compounds of pharmaceutical use” (priority 1996, dated 2002)",
  "key": {"[1]": {"test_system": "E. coli strains DH5a and JM109", "assay": "Growth of pGEMR / pGEMR294 transformants on plates with varying concentrations of spectinomycin", "type": "cell-based", "conditions": "37° C.", "experimental": "E. coli strains DH5a and JM109 were conventionally transformed with pGP1-2, and were subsequently transformed by pGEMR (control) and pGEMR294 (which contains the 16S sequence) as described above in Example 1D. Transformants were selected on LB agar containing ampicillin (200 ug/mL) and kanamycin ([…]). These transformants were subsequently examined for their ability to grow in the presence of varying concentrations of spectinomycin (5, 10, 15, 20 and 40 ug/mL). Spectinomycin resistant transformants were recovered at 37° C.\nBy contrast, transformants of pGEMR294 grew in the presence of the drug up to […]. Plasmids isolated from the transformants and used to retransform each strain, confirmed that resistance was indeed plasmid dependent."}, "[2]": {"test_system": "E. coli strain DC2", "assay": "Selection of spectinomycin-resistant transformants from a random rRNA fragment library", "type": "cell-based", "from_the_text": "Random rDNA fragments were generated by restriction endonuclease digestion of the entire rrnB operon encoding all three rDNAs (16S, 23S and 5S) and the spacer regions using a range and combination of one or more enzymes (including either AluI, HaeIII or DpnI or a double digestion with AluI/DpnI or HaeIII/DpnI) in which recognition sites occurred frequently within the target sequence. The enzymes AluI, HaeIII and DpnI release fragments that can be cloned in either orientation in to the SmaI site on pGEMR.\nThe fragments were ligated into the SmaI site in pGEMR and used to transform the respective strains. The diversity of RNA fragments within the library was determined by in vitro transcription of radiolabeled transcripts using the RIBOMAXÔ system (Promega), resolution by denaturing gel electrophoresis, and autoradiography according to standard procedures [Sambrook et al, cited above]. Briefly described, to establish that the pool of transformants harbored pGEMR encoding a mixed population of rRNA fragments, the plasmids were isolated, linearized with HindIII and transcribed in vitro with T7 RNA polymerase in the presence of ^32PaUTP. The products were resolved by denaturing gel electrophoresis and visualized by autoradiography. The library consisted of a large number of transcripts, varying in size with an average of 200-500 nucleotides in length. […]"}, "[3]": {"test_system": "30S subunits and 3' domain 16S rRNA sub-particle", "conditions": "30S subunits and reconstituted 3' domain particle (nucleotides 923-1542 with eight r-proteins); cited from earlier work"}},
  "data": [
    {"smiles": "CN[C@@H]1[C@H](O)[C@H](NC)[C@H]2O[C@@]3(O)C(=O)C[C@@H](C)O[C@H]3O[C@@H]2[C@H]1O", "note": "[spectinomycin]", "values": [
      {"measurement": "spectinomycin concentration up to which transformants grew", "setting": "[1]; transformants of pGEMR294 (16S rRNA fragment nucleotides 972-1266, helix 34) with pGP1-2", "value": "up to 20 mg/mL"},
      {"measurement": "spectinomycin concentration above which transformants did not survive on plates", "setting": "[1]; transformants of pGEMR (control) with pGP1-2", "value": "above 5 mg/mL"},
      {"measurement": "spectinomycin concentration up to which resistant transformants developed on plates", "setting": "[2]; DC2 (pGP1-2) transformed with rRNA fragment library (16S/23S hybrid fragment), after 48 hours incubation at 37° C.", "value": "up to 40 ug/mL"},
      {"measurement": "level of spectinomycin resistance, transformants expressing 16/23S RNA versus wild type helix 34 fragment", "setting": "[2]; comparison of transformants expressing 16/23S hybrid RNA with those encoding wild type helix 34 fragment", "value": "higher level of spectinomycin resistance"},
      {"measurement": "binding affinity to 30S subunit versus 3' domain sub-particle (dependence of protection on drug concentration)", "setting": "[3]", "value": "binds with similar affinity to each particle"}
    ]}
  ]
}
